Test results as given in US20060069132A1, “Azolecarboxamide herbicides” (priority 2004, published 2006).

Columns and labels:
velvetleaf [1] = test: Test A pre-/postemergence herbicide test; assay type: in vivo, Abutilon theophrasti
Procedure, shortened: (§1)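 Seeds sown in sandy loam received a preemergence directed soil spray of compound in non-phytotoxic solvent with surfactant; postemergence plants (2–10 cm, one- to two-leaf stage) were sprayed to runoff at the same time. After ~10 days in greenhouse, injury was rated visually versus untreated controls (0 = no effect, 100 = complete control).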

eastern black nightshade = test: Test C pre-/postemergence herbicide test; assay type: in vivo, Solanum ptycanthum
Procedure, shortened: (§2)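 Seeds were planted and sprayed preemergence with test chemicals in a non-phytotoxic solvent mixture containing surfactant; postemergence treatments went onto plants 2 to 18 cm tall (1- to 4-leaf stage). After 12 to 14 days in a greenhouse, injury was rated visually against untreated controls on a 0–100 scale.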

redroot pigweed = test: Test A pre-/postemergence herbicide test; assay type: in vivo, Amaranthus retroflexus
Procedure, shortened: as §1

barnyardgrass = test: Test A pre-/postemergence herbicide test; assay type: in vivo, Echinochloa crus-galli
Procedure, shortened: as §1

cocklebur = test: Test C pre-/postemergence herbicide test; assay type: in vivo, Xanthium strumarium
Procedure, shortened: as §2

common ragweed = test: Test C pre-/postemergence herbicide test; assay type: in vivo, Ambrosia elatior; parameters: key to Plant response rating, Ragweed: 0 = no effect, 100 = complete control
Procedure, shortened: as §2

large crabgrass = test: Test C pre-/postemergence herbicide test; assay type: in vivo, Digitaria sanguinalis
Procedure, shortened: as §2

yellow nutsedge = test: Test C pre-/postemergence herbicide test; assay type: in vivo, Cyperus esculentus
Procedure, shortened: as §2

corn = test: Test C pre-/postemergence herbicide test; assay type: in vivo, Zea mays
Procedure, shortened: as §2

velvetleaf [2] = test: Test C pre-/postemergence herbicide test; assay type: in vivo, Abutilon theophrasti
Procedure, shortened: as §2

[3] = Postemergence, 500 g ai/ha, 0 to 100 scale, 0 no effect, 100 complete control
[4] = Postemergence, 2000 g ai/ha, 0 to 100 scale, 0 no effect, 100 complete control
[5] = Preemergence, 500 g ai/ha, visual rating, 0 to 100 scale (0 no effect, 100 complete control)
[6] = Preemergence, 2000 g ai/ha, 0 to 100 scale, 0 no effect, 100 complete control
[7] = 31 g ai/ha, preemergence, scale 0 to 100
[8] = 125 g ai/ha, scale 0 (no effect) to 100 (complete control), visual, 12 to 14 days, preemergence
[9] = 250 g ai/ha, scale 0 to 100 (0 no effect, 100 complete control), visual, 12 to 14 days, preemergence
[10] = Preemergence, 2000 g ai/ha, visual rating, 0 to 100 scale (0 no effect, 100 complete control)
[11] = preemergence, 500 g ai/ha, visual injury, 0 to 100 scale (0 no effect, 100 complete control)
[12] = 62 g ai/ha, preemergence, scale 0 to 100
[13] = 250 g ai/ha, scale 0-100, preemergence
[14] = Preemergence, 500 g ai/ha, scale 0 to 100, 0 no effect, 100 complete control

CCCCn1nc(C(C)(C)C)cc1C(=O)Nc1cccc(C(=O)NCC)c1 [Compound 41]
65: Pigweed plant response rating (redroot pigweed; [5])
100: Plant response rating, Crabgrass, Large (large crabgrass; [8]) | Plant response rating, Crabgrass, Large (large crabgrass; [9]) | Plant response rating, Velvetleaf (velvetleaf [2]; [9])
60: Plant response rating, Pigweed (redroot pigweed; [4]) | Plant response rating, Barnyardgrass (barnyardgrass; [4])
0: Plant response rating, Nightshade (eastern black nightshade; [7]) | Plant response rating (0 = no effect, 100 = complete control), Nightshade (eastern black nightshade; 62 g ai/ha, preemergence) | Plant response rating, Cocklebur (cocklebur; [7]) | Plant response rating (0 = no effect, 100 = complete control), Cocklebur (cocklebur; 62 g ai/ha, preemergence) | Plant response rating, Cocklebur (cocklebur; [8]) | Plant response rating, Ragweed (common ragweed; [7]) | Plant response rating (0 = no effect, 100 = complete control), Ragweed (common ragweed; 62 g ai/ha, preemergence) | Plant response rating, Ragweed (common ragweed; [8]) | Plant response rating, Crabgrass, Large (large crabgrass; [7]) | Plant response rating, Nutsedge, Yellow (yellow nutsedge; [7]) | Plant response rating (0 = no effect, 100 = complete control), Nutsedge, Yellow (yellow nutsedge; 62 g ai/ha, preemergence) | Plant response rating, Nutsedge, Yellow (yellow nutsedge; [8]) | Plant response rating, Nutsedge, Yellow (yellow nutsedge; [9]) | Plant response rating (0 = no effect, 100 = complete control), Corn (corn; 62 g ai/ha, preemergence) | Plant response rating, Corn (corn; [8]) | Plant response rating, Corn (corn; [9]) | Plant response rating, Velvetleaf (velvetleaf [2]; [7])
10: Plant response rating, Nightshade (eastern black nightshade; [8]) | Plant response rating, Cocklebur (cocklebur; [9]) | Plant response rating, Ragweed (common ragweed; [9])
85: Pigweed plant response rating (redroot pigweed; [6])
25: Plant response rating, Velvetleaf (velvetleaf [1]; [3]) | Plant response rating, Velvetleaf (velvetleaf [1]; [4]) | Velvetleaf plant response rating (velvetleaf [1]; [5])
40: Velvetleaf plant response rating (velvetleaf [1]; [6]) | Plant response rating, Pigweed (redroot pigweed; [3]) | Barnyardgrass plant response rating (barnyardgrass; [5]) | Plant response rating (0 = no effect, 100 = complete control), Velvetleaf (velvetleaf [2]; 62 g ai/ha, preemergence) | Plant response rating, Velvetleaf (velvetleaf [2]; [8])
90: Plant response rating, Nightshade (eastern black nightshade; [9]) | Plant response rating (0 = no effect, 100 = complete control), Crabgrass, Large (large crabgrass; 62 g ai/ha, preemergence)
75: Barnyardgrass plant response rating (barnyardgrass; [6])
30: Plant response rating, Barnyardgrass (barnyardgrass; [3])

C=CCNC(=O)c1cccc(NC(=O)c2sc(C(C)(C)C)nc2C)c1 [Compound 202]
30: Velvetleaf plant response rating (velvetleaf [1]; [3]) | Plant response rating, Velvetleaf (velvetleaf [1]; [4])
0: Plant response rating, Cocklebur (cocklebur; [12]) | Plant response rating, Cocklebur (cocklebur; [8]) | Plant response rating, Ragweed (common ragweed; [12]) | Plant response rating, Nutsedge, Yellow (yellow nutsedge; [12]) | Plant response rating, Nutsedge, Yellow (yellow nutsedge; [8]) | Plant response rating, Nutsedge, Yellow (yellow nutsedge; [13]) | Nutsedge, Yellow plant response rating (yellow nutsedge; [14]) | Plant response rating, Corn (corn; [12]) | Plant response rating, Corn (corn; [8]) | Plant response rating, Corn (corn; [13])
35: Velvetleaf plant response rating (velvetleaf [1]; [11])
45: Barnyardgrass plant response rating (barnyardgrass; [3]) | Barnyardgrass plant response rating (barnyardgrass; [11])
100: Plant response rating, Nightshade (eastern black nightshade; [13]) | Nightshade plant response rating (eastern black nightshade; [14]) | Pigweed plant response rating (redroot pigweed; [10]) | Pigweed plant response rating (redroot pigweed; [11]) | Plant response rating, Velvetleaf (velvetleaf [2]; [13]) | Velvetleaf plant response rating (velvetleaf [2]; [14])
20: Plant response rating, Nightshade (eastern black nightshade; [12]) | Cocklebur plant response rating (cocklebur; [14])
10: Plant response rating, Cocklebur (cocklebur; [13]) | Corn plant response rating (corn; [14]) | Plant response rating, Velvetleaf (velvetleaf [2]; [8])
95: Plant response rating, Nightshade (eastern black nightshade; [8]) | Plant response rating, Ragweed (common ragweed; [13]) | Ragweed plant response rating (common ragweed; [14]) | Plant response rating, Crabgrass, Large (large crabgrass; [8]) | Plant response rating, Crabgrass, Large (large crabgrass; [13]) | Crabgrass, Large plant response rating (large crabgrass; [14])
5: Plant response rating, Velvetleaf (velvetleaf [2]; [12])
90: Plant response rating, Pigweed (redroot pigweed; [4])
85: Velvetleaf plant response rating (velvetleaf [1]; [10])
80: Plant response rating, Barnyardgrass (barnyardgrass; [4]) | Barnyardgrass plant response rating (barnyardgrass; [10]) | Plant response rating, Ragweed (common ragweed; [8]) | Plant response rating, Crabgrass, Large (large crabgrass; [12])
50: Pigweed plant response rating (redroot pigweed; [3])
